# In US11261186B2, “Biaryl derivative as GPR120 agonist” (LG CHEM, LTD., priority 2014, dated 2022):
# Biological target: T1, hGPR120 (Homo sapiens, UniProt Q5NUL3)
# T1 construct: expressed in transfected cells; host or cells: CHO-K1
# T1 sequence (Q5NUL3 1-361): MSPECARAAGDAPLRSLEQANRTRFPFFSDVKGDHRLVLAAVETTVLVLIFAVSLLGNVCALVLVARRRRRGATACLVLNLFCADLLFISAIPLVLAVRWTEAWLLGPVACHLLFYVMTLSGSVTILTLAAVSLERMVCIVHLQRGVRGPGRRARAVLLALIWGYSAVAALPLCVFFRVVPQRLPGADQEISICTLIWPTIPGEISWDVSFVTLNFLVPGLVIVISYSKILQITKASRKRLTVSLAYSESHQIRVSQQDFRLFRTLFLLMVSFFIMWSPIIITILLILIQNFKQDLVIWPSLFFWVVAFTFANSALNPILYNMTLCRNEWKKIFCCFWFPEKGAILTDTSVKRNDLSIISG
# Assay: Measurement of Activity of GPR120 Agonist (Cell-Based Assay), Calcium 5 dye fluorescence
# Conditions: CHO-K1 cells expressing Ga16 and hGPR120
# Experimental: CHO-K1 cells expressing Ga16 and hGPR120 were dispensed into each well of a 96-well plate (3×10^4 cells/100 μl/well) and then incubated in 5% CO2, 37° C. incubator for 18 hours. Each well was treated with 100 μl of Calcium 5 dye (Molecular Devices) solution including 2% DMSO and then incubated in 5% CO2, 37° C. incubator for 1 hour. Serially diluted GPR120 agonists were prepared to a final concentration of 0.5% DMSO in a 96-well plate. Each well was treated with 50 μl of the agonist compounds using Plexstation II, and then fluorescence was measured at Ex 485 nm and Em 525 nm.
# Fluorescence increased by the serially diluted GPR120 agonists is calculated as a relative percent (%) value based on the fluorescence represented by the treatment of 1% DMSO only. […] The calculation of measurement was carried out by using statistical software (Prizm).
# Activity is denoted based on the following criteria: […]
row,SMILES,EC50 [nM]
1,"O=C(O)CCC1CCc2cc(-c3cccc(OC4CCCC4)n3)ccc2O1 (stereo not drawn) [Example 9, 3-[6-(6-cyclopentyloxy-pyridin-2-yl)-chroman-2-yl]-propionic acid]",< 200
2,"O=C(O)CCCOc1c(F)cc(-c2ccc(F)c(OCC3CC3)c2)cc1Cl [Example 408, 4-(5-chloro-3′-cyclopropylmethoxy-3,4′-difluoro-biphenyl-4-yloxy)-butyric acid]",< 200
3,"O=C(O)C1CC1COc1c(F)cc(-c2csc(OC3CCC3)n2)cc1F (stereo not drawn) [Example 551, 2-[4-(2-cyclobutoxy-thiazol-4-yl)-2,6-difluoro-phenoxymethyl]-cyclopropanecarboxylic acid]",200 to 2000
4,"O=C(O)CCC1CCc2cc(-c3cccnc3OC3CCCC3)ccc2O1 (stereo not drawn) [Example 10, 3-[6-(2-cyclopentyloxy-pyridin-3-yl)-chroman-2-yl]-propionic acid]",< 200
5,"O=C(O)CCC1CC1c1c(F)cc(-c2cccc3c2OC2(CCCC2)C3)cc1F (stereo not drawn) [Example 443, 3-[2-(2,6-difluoro-4-spiro[3H-benzofuran-2,1′-cyclopentan]-7-yl-phenyl)cyclopropyl]propanoic acid]",200 to 2000
6,"Cc1cc2cc(Cl)cc(-c3cc(F)c(OCCCC(=O)O)c(F)c3)c2o1 [Example 518, 4-[4-(5-chloro-2-methyl-benzofuran-7-yl)-2,6-difluoro-phenoxy]-butyric acid]",< 200
7,"O=C(O)CC1CCN(c2c(F)cc(-c3cncc(OC4CCC4)n3)cc2F)CC1 [Example 329, 2-[1-[4-[6-(cyclobutoxy)pyrazin-2-yl]-2,6-difluoro-phenyl]-4-piperidyl]acetic acid]",< 200
8,"Cc1cc(OC2CCC2)nc(-c2cc(F)c(C(C)CCCC(=O)O)c(F)c2)n1 (stereo not drawn) [Example 419, 5-[4-(4-cyclobutoxy-6-methyl-pyrimidin-2-yl)-2,6-difluoro-phenyl]-hexanoic acid]",< 200
9,"O=C(O)CC1CCN(c2c(F)cc(-c3cncc(NC4CCCC4)n3)cc2F)C1 (stereo not drawn) [Example 504, 2-{1-[2,6-difluoro-4-(6-cyclopentylamino-pyrazin-2-yl)phenyl]pyrrolidin-3-yl}acetic acid]",200 to 2000
10,"CC(CCCC(=O)O)c1c(F)cc(-c2cccnc2OC2CCCC2)cc1F (stereo not drawn) [Example 51, 5-[4-(2-cyclopentoxy-3-pyridyl)-2,6-difluoro-phenyl]hexanoic acid]",< 200
11,"O=C(O)CCCC(F)(F)c1ccc(-c2cccnc2OCC2CC2)cc1 [Example 181, 5-[4-(2-cyclopropylmethoxy-pyridin-3-yl)-phenyl]-5,5-difluoro-pentanoic acid]",< 200
12,"O=C(O)CCCOc1c(F)cc(-c2ccc(Cl)c(OCC3CC3)c2)cc1F [Example 534, 4-(4′-chloro-3′-cyclopropylmethoxy-3,5-difluoro-biphenyl-4-yloxy)-butyric acid]",200 to 2000
13,"O=C(O)CCCCc1c(F)cc(-c2cccnc2OC2CCC2)cc1F [Example 251, 5-[4-(2-cyclobutoxy-pyridin-3-yl)-2,6-difluoro-phenyl]-pentanoic acid]",< 200
14,"CC(C)Oc1cccc(-c2cc(F)c(N3CC(CC(=O)O)C3)c(F)c2)n1 [Example 115, 2-[1-[2,6-difluoro-4-(6-isopropoxy-2-pyridyl)phenyl]azetidin-3-yl]acetic acid]",< 200
15,"CCCOc1nc(-c2cc(F)c(N3CCC(CC(=O)O)CC3)c(F)c2)ncc1F [Example 598, {1-[2,6-difluoro-4-(5-fluoro-4-propoxy-pyrimidin-2-yl)-phenyl]-piperidin-4-yl}-acetic acid]",< 200
16,O=C(O)CC1CCN(c2c(F)cc(-c3cccc(OC4CCSCC4)n3)cc2F)C1 (stereo not drawn) [Example 596],200 to 2000
17,"CC(C)Sc1cccc(-c2ccc3cc(CCC(=O)O)ccc3c2)n1 [Example 140, 3-[6-(6-isopropylsulfanyl-pyridin-2-yl)-naphthalen-2-yl]-propanoic acid]",200 to 2000
18,"Cc1cc(OCC2CC2)nc(-c2cc(F)c(OCC3CC3C(=O)O)c(F)c2)n1 (stereo not drawn) [Example 546, 2-[4-(4-cyclopropylmethoxy-6-methyl-pyrimidin-2-yl)-2,6-difluoro-phenoxymethyl]-cyclopropanecarboxylic acid]",200 to 2000
19,"O=C(O)CC1CCN(c2c(F)cc(-c3cccnc3SC3CCCC3)cc2F)CC1 [Example 100, 2-[1-[4-(2-cyclopentylsulfanyl-3-pyridyl)-2,6-difluoro-phenyl]-4-piperidyl]acetic acid]",< 200
20,"O=C(O)CCCSc1ccc(-c2cccc3c2OC2(CCCC2)O3)cc1F [Example 157, 4-(2-fluoro-4-spiro[1,3-benzodioxol-2,1′-cyclopentan]-4-yl-phenyl)sulfanylbutanoic acid]",< 200

row,SMILES,EC50 [nM]
1,"CCCOc1cccc(-c2ccc3c(c2)CCC(CCC(=O)O)O3)n1 (stereo not drawn) [Example 556, 3-[6-(6-propoxy-pyridin-2-yl)-chroman-2-yl]-propionic acid]",< 200
2,"O=C(O)CCCOc1c(F)cc(-n2ccc3cc(OC4CCC4)ccc32)cc1F [Example 477, 4-[4-[5-(cyclobutoxy)indol-1-yl]-2,6-difluoro-phenoxy]butanoic acid]",200 to 2000
3,"O=C(O)CCCC1(c2c(F)cc(-c3cccnc3SC3CCC3)cc2F)CC1 [Example 167, 4-{1-[4-(2-cyclobutylsulfanyl-pyridin-3-yl)-2,6-difluoro-phenyl]-cyclopropyl}-butyric acid]",200 to 2000
4,"O=C(O)CCSCc1ccc(-c2cccnc2OC2CCCC2)cc1 [Example 293, 3-[4-(2-cyclopentyloxy-pyridin-3-yl)-benzylsulfanyl]-propionic acid]",200 to 2000
5,"O=C(O)CCCOc1c(F)cc(-n2ccc3cc(F)ccc32)cc1F [Example 465, 4-[2,6-difluoro-4-(5-fluoroindol-1-yl)phenoxy]butanoic acid]",< 200
6,"O=C(O)CC1CN(c2c(F)cc(-c3nccc(OCC4CC4)n3)cc2F)C1 [Example 337, 2-[1-[4-[4-(cyclopropylmethoxy)pyrimidin-2-yl]-2,6-difluoro-phenyl]azetidin-3-yl]acetic acid]",< 200
7,"O=C(O)CCCOc1c(F)cc(-c2csc(OCC3CC3)n2)cc1Cl [Example 427, 4-[2-chloro-4-(2-cyclopropylmethoxy-thiazol-4-yl)-6-fluoro-phenoxy]-butyric acid]",< 200
8,"CC(CCCC(=O)O)c1ccc(-c2cccnc2SC2CCC2)cc1 (stereo not drawn) [Example 39, 5-[4-(2-cyclobutylsulfanyl-3-pyridyl)phenyl]hexanoic acid]",< 200
9,"CN(CCCC(=O)O)c1c(F)cc(-c2cccnc2OC2CCCC2)cc1F [Example 196, 4-{[4-(2-cyclopentyloxy-pyridin-3-yl)-2,6-difluoro-phenyl]-methyl-amino}-butyric acid]",< 200
10,"O=C(O)C1CC1COc1c(F)cc(-c2cccc(OC3CCC3)n2)cc1F (stereo not drawn) [Example 544, 2-[4-(6-cyclobutoxy-pyridin-2-yl)-2,6-difluoro-phenoxymethyl]-cyclopropanecarboxylic acid]",< 200
11,"CC(C)Sc1cccc(-c2cc(F)c(N3CCC(CC(=O)O)CC3)c(F)c2)n1 [Example 105, 2-[1-[2,6-difluoro-4-(6-isopropylsulfanyl-2-pyridyl)phenyl]-4-piperidyl]acetic acid]",< 200
12,"CC(C)Sc1ncccc1-c1ccc(N(C)CCCC(=O)O)c(F)c1 [Example 212, 4-{[2-fluoro-4-(2-isopropylsulfanyl-pyridin-3-yl)-phenyl]-methyl-amino}-butyric acid]",< 200
13,"O=C(O)COCC(F)(F)c1ccc(-c2cccnc2SC2CCC2)cc1 [Example 173, {2-[4-(2-cyclobutylsulfanyl-pyridin-3-yl)-phenyl]-2,2-difluoro-ethoxy}-acetic acid]",2000 to 20000
14,"CN(CCCC(=O)O)c1ccc(-c2cccnc2SC2CCC2)cc1F [Example 209, 4-{[4-(2-cyclobutylsulfanyl-pyridin-3-yl)-2-fluoro-phenyl]-methyl-amino}-butyric acid]",< 200
15,"CC(C)n1ccc2ccc(-c3cc(F)c(OCCCC(=O)O)c(F)c3)cc21 [Example 558, 4-[2,6-difluoro-4-(1-isopropyl-1H-indol-6-yl)-phenoxy]-butanoic acid]",< 200
16,"CN(CCCC(=O)O)c1c(F)cc(-c2cccc(OCC3CC3)c2)cc1F [Example 524, 4-[(3′-cyclopropylmethoxy-3,5-difluoro-biphenyl-4-yl)-methyl-amino]-butyric acid]",< 200
17,"COC(=O)N1c2c(cc(F)cc2-c2cc(F)c(OCCCC(=O)O)c(F)c2)CC1(C)C [Example 265, 7-[4-(3-carboxy-propoxy)-3,5-difluoro-phenyl]-5-fluoro-2,2-dimethyl-2,3-dihydro-indol-1-carboxylic acid methyl ester]",200 to 2000
18,"CC(C)CNc1cncc(-c2cc(F)c(N3CCC(CC(=O)O)C3)c(F)c2)n1 (stereo not drawn) [Example 503, 2-{1-[2,6-difluoro-4-(6-isobutylamino-pyrazin-2-yl)phenyl]pyrrolidin-3-yl}acetic acid]",200 to 2000
19,"CC(CCCC(=O)O)c1c(F)cc(-c2cccc(OC3CCC3)c2)cc1F (stereo not drawn) [Example 410, 5-(3′-cyclobutoxy-3,5-difluoro-biphenyl-4-yl)-hexanoic acid]",< 200
